Assay results: ChEMBL document CHEMBL4421720, “Tetrahydropyridopyrazines modulators of gpr6” (2016)

Biological target: G-protein coupled receptor 6 (Homo sapiens, UniProt P46095)
Experiment: Modulation activity at GPR6 receptor (unknown origin) expressed in CHO-K1 cells assessed as inhibition of constitutive cAMP activity incubated for 45 mins by Perkin Elmer Lance HTRF Ultrac-AMP assay
Type: functional, cell-based

G-protein coupled receptor 6, sequence (P46095 whole entry): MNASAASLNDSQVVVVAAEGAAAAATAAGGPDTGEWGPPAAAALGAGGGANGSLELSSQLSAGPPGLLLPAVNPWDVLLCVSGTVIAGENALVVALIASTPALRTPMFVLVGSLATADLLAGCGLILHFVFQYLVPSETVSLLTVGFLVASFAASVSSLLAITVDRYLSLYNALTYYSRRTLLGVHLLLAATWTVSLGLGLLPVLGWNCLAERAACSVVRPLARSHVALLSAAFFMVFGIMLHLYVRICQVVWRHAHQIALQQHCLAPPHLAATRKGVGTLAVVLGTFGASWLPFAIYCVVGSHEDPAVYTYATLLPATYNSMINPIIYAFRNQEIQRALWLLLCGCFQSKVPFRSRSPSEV

Row | IC50 (cho-k1) [µM] | IC50 [µM] | SMILES
1 | 13.7 |  | CC(C)Nc1nc2c(nc1N1CCC(C(=O)c3cc(Cl)ccc3F)CC1)CCN(C)C2
2 |  | 13.8 | CC(=O)N1CCc2nc(N3CCC(C(=O)c4cc(Cl)ccc4F)CC3)c(NC(C)C)nc2C1
